Measured values as given in patent publication US11414387B2, “Oxoacridinyl acetic acid derivatives and methods of use” (Stingthera, Inc., priority 2017, dated 2022).

Assays:
[1] = molecular target: hSTING-WT (Homo sapiens (Human), UniProt Q86WV6, H232R); experiment: Radiometric filtration binding competition assay, hSTING-WT
[2] = molecular target: mSTING-R232 (Mus musculus, UniProt Q3TBT3); experiment: STING differential scanning fluorimetry (DSF) assay, mouse STING; settings: net shift in melting temperature
Method: A STING DSF assay was performed to determine protein thermostability shift in response to small molecule ligand binding. A STING thermostability shift assay based on differential scanning fluorimetry was used to measure (1) the net shift in melting temperature (ΔTm)between the apo and ligand-bound states of the STING protein and (2) the concentration of the thermal denaturation transition (EC50) as a surrogate measure of binding affinity (K). […] Protein in assay buffer was transferred to a 384 well plate and incubated with the hydrophobic fluorescent dye SYBR Orange. A temperature ramp was applied to the plate and the resulting dye fluorescence was plotted as a function of temperature. The first derivative of this function (dF/dT) was then used to extrapolate the melting temperature of the protein at various concentrations of compound and determine the thermal denaturation profile of a protein/compound complex.
• 1. Protein construct (affinity tag removal vs SUMO-fusion construct) • 2. Protein concentration • 3. Dye concentration • 4. Buffer • 5. Thermal ramp velocity • 6. DMSO tolerance • 7. Compound titration parameters • 8. […] 5 μM purified Target STING Protein • 3. 8 μM Sypro Orange Dye • 4. Buffer: 100 mM NaCl, 30 mM HEPES, pH 7.5 • 5. Thermal Ramp: 0.5° C./min • 6. <1% DMSO • 7. 11 point, 2 fold dilution, duplicate, 300 μM high concentrations • 8.

[3] = molecular target: mSTING (Mus musculus, UniProt Q3TBT3); experiment: Radiometric filtration binding competition assay, mSTING
[4] = molecular target: STING protein (Homo sapiens (Human), UniProt Q86WV6, H232R); experiment: Cell based reporter assay of IRF activation (IRF-luciferase), THP1-dual-KI R232; settings: read-out: THP1-dual-KI R232_IRF(Luciferase)_Activity Maximum measured (%)
Chain of STING protein (Q86WV6 whole entry H232R, the tested form may be a part): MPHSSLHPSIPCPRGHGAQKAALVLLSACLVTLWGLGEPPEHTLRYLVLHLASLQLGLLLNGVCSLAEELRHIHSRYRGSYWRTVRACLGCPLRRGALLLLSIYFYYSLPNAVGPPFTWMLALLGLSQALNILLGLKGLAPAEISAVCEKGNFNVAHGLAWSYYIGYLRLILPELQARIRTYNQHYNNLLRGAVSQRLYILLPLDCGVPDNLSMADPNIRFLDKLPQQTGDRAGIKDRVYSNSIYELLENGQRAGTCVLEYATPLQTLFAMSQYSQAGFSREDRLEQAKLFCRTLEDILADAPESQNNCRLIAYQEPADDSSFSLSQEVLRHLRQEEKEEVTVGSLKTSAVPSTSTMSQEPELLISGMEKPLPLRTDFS

[5] = molecular target: hSTING-R232 (Homo sapiens (Human), UniProt Q86WV6, H232R); experiment: STING differential scanning fluorimetry (DSF) assay, WT human STING; settings: WT (R232) human STING aa140-379, net shift in melting temperature
Chain of hSTING-R232 (Q86WV6 140-379 H232R): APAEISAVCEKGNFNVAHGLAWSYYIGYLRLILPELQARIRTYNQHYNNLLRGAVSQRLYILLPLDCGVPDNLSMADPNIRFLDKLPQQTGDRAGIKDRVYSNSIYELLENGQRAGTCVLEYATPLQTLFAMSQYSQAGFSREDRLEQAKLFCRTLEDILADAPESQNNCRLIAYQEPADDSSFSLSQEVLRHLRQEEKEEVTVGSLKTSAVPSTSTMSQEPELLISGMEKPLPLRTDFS

Chain of hSTING-WT (Q86WV6 140-379 H232R): as above

Row | Structure (SMILES) | IC50 [1] [µM] | MOUSE DSF_6xHIS-SUMO Tm Shift (° C.) [2] | IC50 [3] [µM] | Emax [4] [%] | WT_DSF_hSWAT Tm Shift (° C.) [5]
1 | CC(C)c1ccc2c(=O)c3ccc(Cl)c(OC[C@@H](C)O)c3n(CC(=O)O)c2c1 [Compound 327] | > 300 | C (“C” = 5-15° C.) | > 300 | < 5 | C (“C” = 2-7° C,)
2 | COCCOc1c(Cl)ccc2c(=O)c3ccccc3n(CC(=O)O)c12 [Compound 330] | > 300 | B (“B” = 0-5° C.) | > 300 | < 5 | B (“B” = 0-2° C.)
3 | O=C(O)Cn1c2cc(-c3cccc(F)c3)ccc2c(=O)c2ccc(Cl)c(Cl)c21 [Compound 152] | 20 to 100 | C (“C” = 5-15° C.) | 20 to 100 | 5 to 25 | C (“C” = 2-7° C,)
4 | COc1c(Cl)ccc2c(=O)c3ccc(Nc4cccc(O)c4)cc3n(CC(=O)O)c12 [Compound 235] | < 20 | D (“D” > 15° C.) | < 20 | < 5 | D (“D” > 7° C.)
5 | COc1c(Cl)ccc2c(=O)c3ccc(-c4cccc(O)c4)cc3n(CC(=O)O)c12 [Compound 270] | < 20 | D (“D” > 15° C.) | < 20 | > 50 | D (“D” > 7° C.)
6 | COc1c(Cl)ccc2c(=O)c3ccc(-c4ccc(O)cc4)cc3n(CC(=O)O)c12 [Compound 269] | < 20 | D (“D” > 15° C.) | < 20 | > 50 | D (“D” > 7° C.)
7 | COc1c(Cl)ccc2c(=O)c3ccc(SC(C)C)cc3n(CC(=O)O)c12 [Compound 232] | 100 to 300 | D (“D” > 15° C.) | < 20 | > 50 | D (“D” > 7° C.)
8 | COc1c(Cl)ccc2c(=O)c3ccc(Nc4cnccn4)cc3n(CC(=O)O)c12 [Compound 263] | 20 to 100 | D (“D” > 15° C.) | < 20 | < 5 | D (“D” > 7° C.)
9 | COc1c(Cl)ccc2c(=O)c3ccc(Nc4ccc(Cl)cc4)cc3n(CC(=O)O)c12 [Compound 251] | 20 to 100 | D (“D” > 15° C.) | < 20 | 25 to 50 | D (“D” > 7° C.)
10 | CS(=O)(=O)Nc1cccc(Nc2ccc3c(=O)c4ccc(Cl)c(Cl)c4n(CC(=O)O)c3c2)c1 [Compound 257] | 20 to 100 | D (“D” > 15° C.) | < 20 | < 5 | D (“D” > 7° C.)
11 | COc1c(Cl)cc(O)c2c(=O)c3ccccc3n(CC(=O)O)c12 [Compound 314] | > 300 | C (“C” = 5-15° C.) | 100 to 300 | > 50 | C (“C” = 2-7° C,)
12 | CCSc1ccc2c(=O)c3ccc(Cl)c(OC)c3n(CC(=O)O)c2c1 [Compound 231] | 20 to 100 | D (“D” > 15° C.) | < 20 | > 50 | D (“D” > 7° C.)
13 | CC(=O)COc1c(Cl)ccc2c(=O)c3ccccc3n(CC(=O)O)c12 [Compound 312] | > 300 | B (“B” = 0-5° C.) | > 300 | < 5 | B (“B” = 0-2° C.)
14 | CCN(C)c1c(Cl)ccc2c(=O)c3ccc(C)cc3n(CC(=O)O)c12 [Compound 307] | 20 to 100 | D (“D” > 15° C.) | 20 to 100 | > 50 | D (“D” > 7° C.)
15 | Cc1ccc2c(=O)c3ccc(Cl)c(N(C)C)c3n(CC(=O)O)c2c1 [Compound 308] | < 20 | D (“D” > 15° C.) | < 20 | > 50 | D (“D” > 7° C.)
16 | C[C@@H](O)COc1c(Cl)ccc2c(=O)c3ccccc3n(CC(=O)O)c12 [Compound 323] | < 20 | D (“D” > 15° C.) | < 20 | < 5 | D (“D” > 7° C.)
17 | COc1c(Cl)ccc2c(=O)c3ccc(Nc4ccccc4Cl)cc3n(CC(=O)O)c12 [Compound 267] | < 20 | D (“D” > 15° C.) | < 20 | > 50 | D (“D” > 7° C.)
18 | CC(C)Oc1c(Cl)ccc2c(=O)c3ccc(C(C)(C)C)cc3n(CC(=O)O)c12 [Compound 225] | < 20 | D (“D” > 15° C.) | 20 to 100 | > 50 | D (“D” > 7° C.)
19 | CC(C)c1ccc2c(=O)c3ccc(Cl)c(-c4ccccc4)c3n(CC(=O)O)c2c1 [Compound 289] | < 20 | C (“C” = 5-15° C.) | < 20 | > 50 | D (“D” > 7° C.)
20 | C=CCOc1c(Cl)ccc2c(=O)c3ccc(C)cc3n(CC(=O)O)c12 [Compound 311] | 20 to 100 | C (“C” = 5-15° C.) | < 20 | > 50 | D (“D” > 7° C.)
21 | CN(C)c1c(Cl)ccc2c(=O)c3ccc(Nc4ccccc4)cc3n(CC(=O)O)c12 [Compound 332] | < 20 | D (“D” > 15° C.) | < 20 | > 50 | D (“D” > 7° C.)
22 | COc1c(Cl)ccc2c(=O)c3ccc(-c4ccc(N)cc4)cc3n(CC(=O)O)c12 [Compound 274] | < 20 | D (“D” > 15° C.) | < 20 | > 50 | D (“D” > 7° C.)
23 | O=C(O)Cn1c2cc(-c3ccc(Cl)cc3)ccc2c(=O)c2ccc(Cl)c(Cl)c21 [Compound 156] | 100 to 300 | C (“C” = 5-15° C.) | < 20 | < 5 | B (“B” = 0-2° C.)
24 | O=C(O)Cn1c2ccccc2c(=O)c2ccc(Br)c(Br)c21 [Compound 108] | > 300 | C (“C” = 5-15° C.) | 100 to 300 | 5 to 25 | C (“C” = 2-7° C,)
25 | COc1cccc2c(=O)c3ccc(Cl)c(OC)c3n(CC(=O)O)c12 [Compound 333] | > 300 | B (“B” = 0-5° C.) | > 300 | 5 to 25 | B (“B” = 0-2° C.)
26 | COc1c(Cl)ccc2c(=O)c3ccc(Nc4ccc(OC(F)(F)F)cc4)cc3n(CC(=O)O)c12 [Compound 266] | < 20 | D (“D” > 15° C.) | < 20 | > 50 | D (“D” > 7° C.)
27 | COc1ccccc1Nc1ccc2c(=O)c3ccc(Cl)c(OC)c3n(CC(=O)O)c2c1 [Compound 298] | 20 to 100 | D (“D” > 15° C.) | < 20 | > 50 | D (“D” > 7° C.)
